In ChEMBL document CHEMBL1136553, “Synthesis and biological evaluation of novel 1 beta-methylcarbapenems with isothiazoloethenyl side chains” (Bioorg Med Chem Lett, 2003):
In brackets after ≈: the same amount, converted by molar mass.

Columns and labels:
Enterobacter cloacae = assay: Antibacterial activity against Enterobacter cloacae 1321E; type: functional
Pseudomonas aeruginosa [1] = assay: Antibacterial activity against Pseudomonas aeruginosa 1771M; type: functional
Pseudomonas aeruginosa [2] = assay: Antibacterial activity against Pseudomonas aeruginosa 1592E; type: functional
Escherichia coli [3] = assay: Antibacterial activity against Escherichia coli 078; type: functional
Streptococcus pyogenes = assay: Antibacterial activity against Streptococcus pyogenes 308A; type: functional
Klebsiella aerogenes = assay: Antibacterial activity against Klebsiella aerogenes 1522E; type: functional
[4] = Stability to porcine renal DHP-I; type: ADME, Sus scrofa; details: pig
Pseudomonas aeruginosa [5] = assay: Antibacterial activity against Pseudomonas aeruginosa 9027; type: functional
Salmonella typhimurium = assay: Antibacterial activity against Salmonella Typhimurium; type: functional, Salmonella enterica subsp. enterica serovar Typhimurium; details: Salmonella enterica
Escherichia coli [6] = assay: Antibacterial activity against Escherichia coli 1507E; type: functional
Staphylococcus aureus [7] = assay: Antibacterial activity against Staphylococcus aureus 503; type: functional
Staphylococcus aureus [8] = assay: Antibacterial activity against Staphylococcus aureus SG 511; type: functional
Staphylococcus aureus [9] = assay: Antibacterial activity against Staphylococcus aureus 285; type: functional
Mus musculus [10] = assay: In vivo therapeutic efficacy in systemic infections caused by Staphylococcus aureus Y-80-1953 in mice, at a single subcutaneous administration; type: functional; details: sc, read-out: PD50
Mus musculus [11] = assay: In vivo therapeutic efficacy in systemic infections caused by Pseudomonas aeruginosa 1771M in mice, at a single subcutaneous administration; type: functional; details: sc, read-out: PD50
Mus musculus [12] = assay: In vivo therapeutic efficacy in systemic infections caused by Streptococcus pyogenes 77A in mice, at a single subcutaneous administration; type: functional; details: sc, read-out: PD50
Mus musculus [13] = assay: In vivo therapeutic efficacy in systemic infections caused by Escherichia coli 078 in mice, at a single subcutaneous administration; type: functional; details: sc, read-out: PD50

| SMILES | MIC (Enterobacter cloacae) [µg/mL] | MIC (Pseudomonas aeruginosa [1]) [µg/mL] | MIC (Pseudomonas aeruginosa [2]) [µg/mL] | MIC (Escherichia coli [3]) [µg/mL] | MIC (Streptococcus pyogenes) [µg/mL] | MIC (Klebsiella aerogenes) [µg/mL] | Relative t1/2 [4] | MIC (Pseudomonas aeruginosa [5]) [µg/mL] | MIC (Salmonella typhimurium) [µg/mL] | MIC (Escherichia coli [6]) [µg/mL] | MIC (Staphylococcus aureus [7]) [µg/mL] | MIC (Staphylococcus aureus [8]) [µg/mL] | MIC (Staphylococcus aureus [9]) [µg/mL] | ED50 (Mus musculus [10]) [mg/kg] | ED50 (Mus musculus [11]) [mg/kg] | ED50 (Mus musculus [12]) [mg/kg] | ED50 (Mus musculus [13]) [mg/kg] |
| --- | --- | --- | --- | --- | --- | --- | --- | --- | --- | --- | --- | --- | --- | --- | --- | --- | --- |
| C[C@@H](O)[C@H]1C(=O)N2C(C(=O)O)=C(S[C@@H]3CN[C@H](/C=C/c4ccsn4)C3)[C@H](C)[C@H]12 | 0.025 (≈ 0.0593 µM) | 0.391 (≈ 0.928 µM) | 1.56 (≈ 3.71 µM) | 0.049 (≈ 0.116 µM) | 0.007 (≈ 0.0166 µM) | 0.098 (≈ 0.232 µM) | 1.42 | 1.56 (≈ 3.71 µM) | 0.049 (≈ 0.116 µM) | 0.049 (≈ 0.116 µM) | 0.013 (≈ 0.0308 µM) | 0.025 (≈ 0.0593 µM) | 0.025 (≈ 0.0593 µM) | – | – | – | – |
| C[C@@H](O)[C@H]1C(=O)N2C(C(=O)O)=C(S[C@@H]3CN[C@H](/C=C/c4ccns4)C3)[C@H](C)[C@H]12 | 0.049 (≈ 0.116 µM) | 0.195 (≈ 0.463 µM) | 0.391 (≈ 0.928 µM) | 0.025 (≈ 0.0593 µM) | 0.004 (≈ 0.00949 µM) | 0.049 (≈ 0.116 µM) | 3.36 | 0.391 (≈ 0.928 µM) | 0.049 (≈ 0.116 µM) | 0.025 (≈ 0.0593 µM) | 0.013 (≈ 0.0308 µM) | 0.013 (≈ 0.0308 µM) | 0.025 (≈ 0.0593 µM) | 1.27 | 6.17 | 0.32 | 0.32 |
| C[C@@H](O)[C@H]1C(=O)N2C(C(=O)O)=C(S[C@@H]3CN[C@H](/C=C/c4ccno4)C3)[C@H](C)[C@H]12 | 0.025 (≈ 0.0617 µM) | 0.098 (≈ 0.242 µM) | 0.195 (≈ 0.481 µM) | 0.025 (≈ 0.0617 µM) | 0.004 (≈ 0.00986 µM) | 0.049 (≈ 0.121 µM) | 1.95 | 0.195 (≈ 0.481 µM) | 0.049 (≈ 0.121 µM) | 0.025 (≈ 0.0617 µM) | 0.013 (≈ 0.0321 µM) | 0.025 (≈ 0.0617 µM) | 0.049 (≈ 0.121 µM) | – | – | – | – |
| C[C@@H](O)[C@H]1C(=O)N2C(C(=O)O)=C(SCCNC=N)C[C@H]12.O [IMIPENEM] | 0.195 | 0.195 | 1.56 | 0.098 | 0.007 | 0.391 | 0.19 | 0.781 | 0.781 | 0.195 | 0.013 | 0.025 | 0.025 | – | – | – | – |
| C[C@@H](O)[C@H]1C(=O)N2C(C(=O)O)=C(S[C@@H]3CN[C@H](C(=O)N(C)C)C3)[C@H](C)[C@H]12 [MEROPENEM] | 0.025 (≈ 0.0652 µM) | 0.049 (≈ 0.128 µM) | 0.195 (≈ 0.509 µM) | 0.025 (≈ 0.0652 µM) | 0.013 (≈ 0.0339 µM) | 0.049 (≈ 0.128 µM) | 1 | 0.195 (≈ 0.509 µM) | 0.049 (≈ 0.128 µM) | 0.025 (≈ 0.0652 µM) | 0.098 (≈ 0.256 µM) | 0.195 (≈ 0.509 µM) | 0.195 (≈ 0.509 µM) | 4.49 | 5.43 | 4.72 | 1.11 |
